Data from ChEMBL document CHEMBL1127206, “Preparation and in vitro biological evaluation of the enantiomers of the diydropyridine BMY 20014, a combination calcium and 1-adrenoreceptor antagonist” (Bioorg Med Chem Lett, 1993).

Columns and labels:
[1] = biological target: T1, Adrenergic receptor alpha-1 (Rattus norvegicus, UniProt P15823+P23944+P43140); experiment: Alpha-1 adrenergic receptor binding affinity was evaluated by its ability to displace [3H]prazosin in rat brain synaptosomes; type: subcellular
T1 sequence (P15823 whole entry): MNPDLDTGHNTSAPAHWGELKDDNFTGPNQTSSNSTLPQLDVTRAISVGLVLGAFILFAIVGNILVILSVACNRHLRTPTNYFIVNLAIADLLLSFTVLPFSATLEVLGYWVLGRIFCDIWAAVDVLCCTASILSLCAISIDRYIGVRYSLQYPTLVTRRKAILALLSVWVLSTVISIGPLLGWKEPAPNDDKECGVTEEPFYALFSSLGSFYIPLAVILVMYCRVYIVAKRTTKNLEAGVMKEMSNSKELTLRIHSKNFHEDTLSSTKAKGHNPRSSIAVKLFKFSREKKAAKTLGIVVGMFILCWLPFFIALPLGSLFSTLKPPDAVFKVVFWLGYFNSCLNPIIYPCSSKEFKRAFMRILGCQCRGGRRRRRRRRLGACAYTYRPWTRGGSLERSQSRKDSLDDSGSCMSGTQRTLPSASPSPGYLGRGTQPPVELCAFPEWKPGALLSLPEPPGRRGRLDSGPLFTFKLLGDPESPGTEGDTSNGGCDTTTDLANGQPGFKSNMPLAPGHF
T1 sequence (P23944 whole entry): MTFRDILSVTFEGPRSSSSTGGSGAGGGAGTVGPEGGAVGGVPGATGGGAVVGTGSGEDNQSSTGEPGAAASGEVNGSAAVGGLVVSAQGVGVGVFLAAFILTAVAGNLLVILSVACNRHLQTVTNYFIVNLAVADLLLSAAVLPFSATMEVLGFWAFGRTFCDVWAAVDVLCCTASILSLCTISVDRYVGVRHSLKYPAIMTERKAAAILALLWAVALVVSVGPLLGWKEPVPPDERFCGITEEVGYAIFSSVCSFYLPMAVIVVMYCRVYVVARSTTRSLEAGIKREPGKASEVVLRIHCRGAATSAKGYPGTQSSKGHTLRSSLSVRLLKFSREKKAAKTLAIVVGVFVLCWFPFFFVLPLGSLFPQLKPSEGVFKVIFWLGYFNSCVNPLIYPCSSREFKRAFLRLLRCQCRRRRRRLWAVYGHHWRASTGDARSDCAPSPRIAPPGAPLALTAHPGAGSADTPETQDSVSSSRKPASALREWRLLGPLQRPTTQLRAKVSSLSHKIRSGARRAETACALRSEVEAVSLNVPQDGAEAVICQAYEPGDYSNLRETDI
T1 sequence (P43140 whole entry): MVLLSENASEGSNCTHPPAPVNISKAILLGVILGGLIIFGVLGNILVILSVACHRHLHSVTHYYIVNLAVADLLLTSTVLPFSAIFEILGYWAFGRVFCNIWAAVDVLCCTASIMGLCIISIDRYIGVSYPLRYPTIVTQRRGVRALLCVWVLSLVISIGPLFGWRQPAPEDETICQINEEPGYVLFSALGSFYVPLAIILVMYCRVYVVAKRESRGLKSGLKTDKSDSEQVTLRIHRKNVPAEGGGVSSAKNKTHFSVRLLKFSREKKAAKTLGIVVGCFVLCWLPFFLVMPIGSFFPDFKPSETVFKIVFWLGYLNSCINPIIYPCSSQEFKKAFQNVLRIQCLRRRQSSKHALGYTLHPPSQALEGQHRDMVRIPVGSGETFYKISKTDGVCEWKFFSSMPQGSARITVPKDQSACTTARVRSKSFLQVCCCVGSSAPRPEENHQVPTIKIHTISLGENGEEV

[2] = [Ca2+] channel binding affinity was evaluated by its ability to displace [3H]-PN-200-110 in rat brain synaptosomes; type: subcellular
Rattus norvegicus = species: Rattus norvegicus; experiment: Inhibition constant by its ability to inhibit (act through Ca++ ion channel) contractions induced by K+ depolarization in rat dorsal aorta; type: functional
Oryctolagus cuniculus = species: Oryctolagus cuniculus; experiment: Inhibition constant by its ability to inhibit contractions induced by phenylephrine in rabbit dorsal aorta; type: functional

SMILES	Ki [1]	Ki [2]	Kb (Rattus norvegicus)	Kb (Oryctolagus cuniculus)
CO/C(O)=C1\C(C)=NC(C)=C(C(=O)NCCCN2CCN(c3ccccc3OC)CC2)C1c1cccc([N+](=O)[O-])c1 (centres undefined)	13 nM	35 nM	6.3 nM	–
CO/C(O)=C1\C(C)=NC(C)=C(C(=O)n2ccnc2)[C@H]1c1cccc([N+](=O)[O-])c1	> 1000 nM	7.8 nM	3.6 nM	–
CO/C(O)=C1\C(C)=NC(C)=C(C(=O)n2ccnc2)[C@@H]1c1cccc([N+](=O)[O-])c1	> 1000 nM	181 nM	31 nM	–
COC(=O)C1=C(C)NC(C)=C(C(=O)NCCCN2CCN(c3ccccc3OC)CC2)[C@@H]1c1cccc([N+](=O)[O-])c1	36 nM	338 nM	107 nM	50 nM
COC(=O)C1=C(C)NC(C)=C(C(=O)NCCCN2CCN(c3ccccc3OC)CC2)[C@H]1c1cccc([N+](=O)[O-])c1	4.6 nM	16 nM	2.9 nM	8.3 nM
COC(=O)C1=C(C)NC(C)=C(C(=O)OC)C1c1ccccc1[N+](=O)[O-] [NIFEDIPINE]	> 1000 nM	0.53 nM	0.5 nM	> 1000 nM
COc1cc2nc(N3CCN(C(=O)c4ccco4)CC3)nc(N)c2cc1OC [PRAZOSIN]	–	> 1000 nM	> 1000 nM	1.6 nM
